Experiments:
Conditions in all cases: 72 h
[1] = tested on: Vero E6; assay: drug sensitivity score (DSS) for viability; higher = more toxic; extreme values may be limits of the assay
[2] = tested on: Caco-2; assay: as above
[3] = tested on: U2OS; assay: as above
[4] = tested on: Calu-3; assay: as above
[5] = tested on: HepG2; assay: as above
[6] = tested on: Vero E6; assay: relative viability EC50 (midpoint between 100% and the lowest measured viability); higher = less toxic
[7] = tested on: Caco-2; assay: as above
[8] = tested on: U2OS; assay: as above
[9] = tested on: Calu-3; assay: as above
[10] = tested on: HepG2; assay: as above
[11] = tested on: Vero E6; assay: cell viability relative to DMSO; higher = less toxic
[12] = tested on: Caco-2; assay: as above
[13] = tested on: U2OS; assay: as above
[14] = tested on: Calu-3; assay: as above
[15] = tested on: HepG2; assay: as above

Structure (SMILES)	drug sensitivity score [1]	drug sensitivity score [2]	drug sensitivity score [3]	drug sensitivity score [4]	drug sensitivity score [5]	relative viability EC50 [6] [µM]	relative viability EC50 [7] [µM]	relative viability EC50 [8] [µM]	relative viability EC50 [9] [µM]	relative viability EC50 [10] [µM]	cell viability ([11]; 1 nM) [%]	cell viability ([11]; 10 nM) [%]	cell viability ([11]; 100 nM) [%]	cell viability ([11]; 1000 nM) [%]	cell viability ([11]; 10000 nM) [%]	cell viability ([12]; 1 nM) [%]	cell viability ([12]; 10 nM) [%]	cell viability ([12]; 100 nM) [%]	cell viability ([12]; 1000 nM) [%]	cell viability ([12]; 10000 nM) [%]	cell viability ([13]; 1 nM) [%]	cell viability ([13]; 10 nM) [%]	cell viability ([13]; 100 nM) [%]	cell viability ([13]; 1000 nM) [%]	cell viability ([13]; 10000 nM) [%]	cell viability ([14]; 1 nM) [%]	cell viability ([14]; 10 nM) [%]	cell viability ([14]; 100 nM) [%]	cell viability ([14]; 1000 nM) [%]	cell viability ([14]; 10000 nM) [%]	cell viability ([15]; 1 nM) [%]	cell viability ([15]; 10 nM) [%]	cell viability ([15]; 100 nM) [%]	cell viability ([15]; 1000 nM) [%]	cell viability ([15]; 10000 nM) [%]
CN(C)CCOc1ccc(-c2nc(-c3ccncc3)c(-c3ccc4c(c3)CC/C4=N\O)[nH]2)cc1	0	0	0	0	12.6	> 10	> 10	> 10	> 10	0.748	102	98.5	105	112	113	106	103	99.1	101	98.6	93	108	99.6	116	114	99.6	94.5	114	115	117	110	102	96.8	39.8	3.5
CC(C)[C@H](CO)Nc1nc(Nc2ccc(C(=O)O)c(Cl)c2)c2ncn(C(C)C)c2n1 [purvalanol-B]	0	0	0	0	0	> 10	> 10	> 10	> 10	> 10	94	96.4	95.9	94.9	103	89.4	91.9	103	96.8	98.3	97.1	96.1	101	103	107	111	101	106	114	95.5	93.5	99.2	99.1	98.4	98.9
CC(N)CCCC(C)(C)O (stereo not given) [heptaminol]	0	0	0	0	0	> 10	> 10	> 10	> 10	> 10	95.1	95.7	97.3	94.3	104	90.3	91.7	96.7	107	106	95.1	97.7	98.1	103	105	94.4	144	103	101	94.2	106	96.3	102	95.6	104
Cc1cc(C(C)(C)C)c(O)c(C)c1CC1=NCCN1 [oxymetazoline]	0	0.9	0	0	1.5	> 10	> 10	> 10	> 10	> 10	100	106	102	95.7	98.7	97.6	93.7	80.4	96.6	83.6	100	99.5	98.9	100	96.4	92.1	92.3	94.5	101	107	103	87.9	104	84	88
CSc1ccc(C(=O)N[C@@H]2CCCC[C@@H]2NC(=O)CNC(=O)c2cc(C(F)(F)F)ccc2NC(=O)NC(C)C)cc1 [BMS-CCR2-22]	0	0	0	0	0.1	> 10	> 10	> 10	> 10	> 10	101	102	102	101	95.1	93.2	87.7	94.5	100	89.6	102	101	96.5	103	94.5	112	94	98.1	101	101	108	95.8	101	98	88
CN(C)CC(=O)Nc1ccc2[nH]c(=O)c3ccccc3c2c1 [PJ-34]	0	0	0	0	0	> 10	> 10	> 10	> 10	> 10	96.7	93.2	101	100	102	91.5	101	99.3	97.2	104	92.2	102	94	94.6	95.6	95.5	100	96.2	104	98.5	97.5	99.3	97.8	103	98.6
O=C1CCC2CCC(=O)N12 [rolziracetam]	0	0	0	0	0	> 10	> 10	> 10	> 10	> 10	94.9	105	97.8	102	97.5	79.1	112	82.8	98.6	89.1	98	100	101	96.7	102	91	87	99.1	103	96.3	114	104	96.1	108	116
O=[N+]([O-])c1cc2nc(O)c(O)nc2cc1[N+](=O)[O-] [DNQX]	0	0	0	0	0	> 10	> 10	> 10	> 10	> 10	86.8	96.1	89.2	95.8	102	86.4	94.2	97.4	89.3	94.4	104	96.8	101	93.6	98	96.8	96.3	100	97.4	94.3	102	101	95.6	101	102
CCOC(=O)N[C@@H]1CC[C@@H]2[C@@H](C1)C[C@H]1C(=O)O[C@H](C)[C@H]1[C@H]2/C=C/c1ccc(-c2cccc(F)c2)cn1 [vorapaxar]	0	0.2	0	0	0	> 10	> 10	> 10	> 10	> 10	92.5	103	99.8	92.7	105	90	93.2	103	105	83	102	98.7	102	102	89.1	98	95	102	94.3	99.9	105	112	100	99.9	94.3
C#C[C@]1(O)CC[C@H]2[C@@H]3CCC4=CC(=O)CC[C@@H]4[C@H]3C(=C)C[C@@]21CC [etonogestrel]	0	0.6	0	0	0	> 10	> 10	> 10	> 10	> 10	98.2	84.7	95.6	85.2	104	87.3	75.4	98.7	81.7	104	93.8	95.1	93.8	97.1	103	92.7	95.1	104	97.6	102	95.4	97.2	94.1	90	104
Cc1cc(C)c(NC(=O)C2CC3CCC2C3)c(C)c1 (stereo not given) [ML-213]	0	0	0	0	0	> 10	> 10	> 10	> 10	> 10	93.3	98.4	96.3	90.3	100	107	82.4	93.7	98.4	99.8	105	100	99.8	103	104	105	96.5	92	106	95.3	103	104	99.9	104	101
C[C@]12CC[C@H]3[C@@H](CCC4=CC(=O)CC[C@@H]43)[C@@H]1CC[C@@H]2O [Nandrolone]	0	0	0	0	0	> 10	> 10	> 10	> 10	> 10	91.6	104	89.9	96.2	103	92	91.3	98.7	103	95	98.7	96.1	98.5	96.5	96.7	95.7	102	102	104	99.4	102	101	96.9	108	113

Source: the supplement of paper PMC13380429
